Laboratory results as given in PubChem BioAssay (NCI).
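Test compounds were applied to cells in 96-well plates for 48 hours at 5 doses. Here, GI50 denotes the concentration required for 50% inhibition of growth. TGI: total growth inhibition.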

Columns and labels:
Experiment in all cases: NCI anticancer screen, dose series, 48 h
SF-295 CNS = tested on: SF-295 CNS
MALME-3M melanoma = tested on: MALME-3M melanoma
SF-539 CNS = tested on: SF-539 CNS
COLO 205 colon = tested on: COLO 205 colon
TK-10 renal = tested on: TK-10 renal
ACHN renal = tested on: ACHN renal
OVCAR-4 ovarian = tested on: OVCAR-4 ovarian
UACC-257 melanoma = tested on: UACC-257 melanoma
BT-549 breast = tested on: BT-549 breast
MDA-MB-435 = tested on: MDA-MB-435

Row | SMILES | TGI (SF-295 CNS) | TGI (MALME-3M melanoma) | TGI (SF-539 CNS) | TGI (COLO 205 colon) | TGI (TK-10 renal) | TGI (ACHN renal) | TGI (OVCAR-4 ovarian) | TGI (UACC-257 melanoma) | TGI (BT-549 breast) [µM] | TGI (MDA-MB-435) [µM] | GI50 (SF-295 CNS) | GI50 (MALME-3M melanoma) | GI50 (SF-539 CNS) | GI50 (COLO 205 colon) | GI50 (TK-10 renal) | GI50 (ACHN renal) | GI50 (OVCAR-4 ovarian) | GI50 (UACC-257 melanoma) | GI50 (BT-549 breast) [µM] | GI50 (MDA-MB-435) [µM]
1 | O=C(Nc1ccc(Cl)c(Cl)c1)C1C(=O)N(c2ccc(Cl)c(Cl)c2)C(=O)/C1=N\O (stereo not drawn) | > 100 µM | > 100 µM | > 100 µM | 41.9 µM | > 100 µM | > 100 µM | > 100 µM | > 100 µM | – | – | – | – | – | – | – | – | – | – | – | –
2 | O=C(O)Cn1ccc(=O)c2c([N+](=O)[O-])cccc21 | > 100 µM | > 100 µM | > 100 µM | > 100 µM | > 100 µM | > 100 µM | – | > 100 µM | > 100 | > 100 | – | – | – | – | – | – | – | – | – | –
3 | c1ccc2c(c1)[O][Sn][O]2 | > 150 mg/L | > 150 mg/L | > 150 mg/L | > 150 mg/L | > 150 mg/L | > 150 mg/L | > 150 mg/L | > 150 mg/L | – | – | > 150 mg/L | 90.9 mg/L | 26.2 mg/L | > 150 mg/L | 101 mg/L | 24.1 mg/L | 102 mg/L | > 150 mg/L | – | –
4 | Cc1ccc(-c2nc(C(Cl)Cl)nc3cc(C)nn23)cc1 | 6.71 µM | – | > 100 µM | 3.41 µM | > 100 µM | 3.6 µM | 3.87 µM | > 100 µM | > 100 | – | 2.1 µM | – | 4.14 µM | 1.04 µM | 3.55 µM | 0.783 µM | 1.07 µM | 3.26 µM | 9.68 | –
5 | COc1ncc2cc1NS(=O)(=O)c1cccc(c1)C(=O)NCC1=CC=C(S1)c1ncnc3c1SC2=C3C | 2.61 µM | 3.09 µM | – | 0.555 µM | 10.4 µM | 8.33 µM | 10.5 µM | 2.99 µM | 0.505 | 3.43 | 0.0972 µM | 0.302 µM | – | 0.204 µM | 0.51 µM | 0.592 µM | 1.22 µM | 0.371 µM | 0.0855 | 0.434
6 | CN(C)CCNC(=O)c1cccc2cc3ccc4ccccc4c3nc12 | 0.886 µM | 0.76 µM | 0.39 µM | 0.25 µM | 0.904 µM | 0.0561 µM | 0.752 µM | 0.535 µM | – | – | – | – | – | – | – | – | – | – | – | –
7 | COc1cc(OC)c(/C=C/C(=O)c2c(N)cc(OC)cc2OC)c(OC)c1 | – | – | > 25.2 µM | > 45.1 µM | > 100 µM | > 100 µM | > 100 µM | – | > 100 | 0.514 | 0.397 µM | – | 0.365 µM | 2.94 µM | 6.64 µM | 0.722 µM | 13.6 µM | – | 31.7 | 0.0776
8 | O=C1c2ccccc2-c2c1c1ccc([N+](=O)[O-])cc1c(=O)n2CCCCl | > 100 µM | – | – | – | > 100 µM | > 100 µM | – | > 100 µM | > 100 | > 100 | 2.25 µM | – | – | – | 37.8 µM | 4.29 µM | – | > 100 µM | 13.3 | 31.7
9 | CC1(C)N=C(N)N=C(N)N1c1ccc(OCCCCNC(=O)Nc2cccc(S(=O)(=O)F)c2)c(Cl)c1 | > 100 µM | > 100 µM | 8.5 µM | > 100 µM | – | > 100 µM | > 100 µM | > 100 µM | > 100 | > 100 | 5.59 µM | 29.6 µM | 1.27 µM | 3.78 µM | – | 22.3 µM | 13.3 µM | 3.73 µM | 12.5 | 0.642
10 | CN1CCOCCOCCOc2ccccc2NC(=O)c2nc(cnc2N)-c2ccc(cc2)S1(=O)=O | > 100 µM | > 100 µM | > 100 µM | – | 49.4 µM | > 100 µM | – | – | > 100 | – | 4.52 µM | > 100 µM | 0.0371 µM | – | 11.3 µM | 0.0504 µM | – | – | 7.77 | –
11 | CCOC(=O)C1=CSC2=NC3=C(CCC/C3=C\c3cc(OC)c(OC)c(OC)c3)C(c3cc(OC)c(OC)c(OC)c3)N12 (stereo not drawn) | – | – | – | > 100 µM | > 100 µM | – | > 100 µM | > 100 µM | > 100 | – | – | – | – | 3.05 µM | 4.33 µM | – | 1.32 µM | 1.73 µM | 2.64 | –
12 | Cn1cc(NC(=O)c2cc(NC(=O)CCCCCCCC(=O)Nc3cc(C(=O)Nc4cc(C(=O)NCCC(=N)N)n(C)c4)n(C)c3)cn2C)cc1C(=O)NCCC(=N)N | > 100 µM | 20.1 µM | 33.1 µM | 26 µM | 36.7 µM | > 100 µM | > 100 µM | 23.8 µM | – | – | – | – | – | – | – | – | – | – | – | –
13 | O=c1[nH]c(=O)n(C2CC(O)C(O)C(CO)O2)cc1F (stereo not drawn) | > 100 µM | > 100 µM | > 100 µM | > 100 µM | > 100 µM | > 100 µM | > 100 µM | > 100 µM | – | – | – | – | – | – | – | – | – | – | – | –
